Measurements as given in patent US8748429B2, “CGRP receptor antagonists” (Bristol-Myers Squibb Company, priority 2011, dated 2014).

Each compound was assayed against Human CGRP Receptor (Homo sapiens, UniProt O60894+Q16602) (assay: Human CGRP Binding).
Human CGRP Receptor, sequence (Q16602 23-461): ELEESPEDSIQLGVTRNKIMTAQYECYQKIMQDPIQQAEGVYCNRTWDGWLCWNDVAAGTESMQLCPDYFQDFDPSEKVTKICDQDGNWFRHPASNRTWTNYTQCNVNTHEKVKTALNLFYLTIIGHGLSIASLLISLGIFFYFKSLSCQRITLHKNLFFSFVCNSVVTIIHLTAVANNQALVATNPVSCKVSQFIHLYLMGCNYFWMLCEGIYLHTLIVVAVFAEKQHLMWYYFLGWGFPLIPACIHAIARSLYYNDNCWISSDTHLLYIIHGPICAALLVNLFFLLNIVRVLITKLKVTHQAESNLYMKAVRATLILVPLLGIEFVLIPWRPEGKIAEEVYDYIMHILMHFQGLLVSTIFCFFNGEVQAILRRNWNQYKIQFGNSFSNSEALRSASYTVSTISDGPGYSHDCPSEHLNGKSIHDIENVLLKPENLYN
Human CGRP Receptor, sequence (O60894 27-148): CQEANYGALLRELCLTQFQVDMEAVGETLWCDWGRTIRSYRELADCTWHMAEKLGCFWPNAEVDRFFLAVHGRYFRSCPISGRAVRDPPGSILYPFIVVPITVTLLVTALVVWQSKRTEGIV

| SMILES | IC50 [nM] |
| --- | --- |
| CC(C)(C)OC(=O)N[C@@H]1c2nccnc2C(CC(=O)N2CCC(n3c(=O)[nH]c4ncccc43)CC2)=CC[C@H]1c1cccc(F)c1F [Example 1, tert-butyl (5S,6S,Z)-6-(2,3-difluorophenyl)-9-(2-oxo-2-(4-(2-oxo-2,3-dihydro-1H-imidazo[4,5-b]pyridin-1-yl)piperidin-1-yl)ethyl)-6,7-dihydro-5H-cyclohepta[b]pyrazin-5-ylcarbamate] | 570 |
| N[C@@H]1c2nccnc2C(CC(=O)N2CCC(n3c(=O)[nH]c4ncccc43)CC2)=CC[C@H]1c1cccc(F)c1F [Example 2, 1-(1-(2-((5S,6S,Z)-5-amino-6-(2,3-difluorophenyl)-6,7-dihydro-5H-cyclohepta[b]pyrazin-9-yl)acetyl)piperidin-4-yl)-1H-imidazo[4,5-b]pyridin-2(3H)-one] | 470 |
| CC(C)(C)OC(=O)N[C@@H]1c2nccnc2[C@H](OC(=O)N2CCC(n3c(=O)[nH]c4ncccc43)CC2)CC[C@H]1c1cccc(F)c1F [Example 3, (5R,8S,9S)-9-(tert-butoxycarbonylamino)-8-(2,3-difluorophenyl)-6,7,8,9-tetrahydro-5H-cyclohepta[b]pyrazin-5-yl 4-(2-oxo-2,3-dihydro-1H-imidazo[4,5-b]pyridin-1-yl)piperidine-1-carboxylate] | 1.1 |
| N[C@@H]1c2nccnc2[C@H](OC(=O)N2CCC(n3c(=O)[nH]c4ncccc43)CC2)CC[C@H]1c1cccc(F)c1F [Example 4, (5R,8S,9S)-9-amino-8-(2,3-difluorophenyl)-6,7,8,9-tetrahydro-5H-cyclohepta[b]pyrazin-5-yl 4-(2-oxo-2,3-dihydro-1H-imidazo[4,5-b]pyridin-1-yl)piperidine-1-carboxylate] | 0.11 |
| CC(C)(C)OC(=O)N[C@@H]1c2nccnc2[C@H](NC(=O)N2CCC(n3c(OCOCC[Si](C)(C)C)nc4ncccc43)CC2)CC[C@H]1c1cccc(F)c1F [Example 5, tert-butyl (5S,6S,9R)-6-(2,3-difluorophenyl)-9-(4-(2-((2-(trimethylsilyl)ethoxy)methoxy)-1H-imidazo[4,5-b]pyridin-1-yl)piperidine-1-carboxamido)-6,7,8,9-tetrahydro-5H-cyclohepta[b]pyrazin-5-ylcarbamate] | 74 |
| CC(C)(C)OC(=O)N[C@@H]1c2nccnc2[C@H](NC(=O)N2CCC(n3c(=O)n(COCC[Si](C)(C)C)c4ncccc43)CC2)CC[C@H]1c1cccc(F)c1F [Example 6, tert-butyl (5S,6S,9R)-6-(2,3-difluorophenyl)-9-(4-(2-oxo-3-((2-(trimethylsilyl)ethoxy)methyl)-2,3-dihydro-1H-imidazo[4,5-b]pyridin-1-yl)piperidine-1-carboxamido)-6,7,8,9-tetrahydro-5H-cyclohepta[b]pyrazin-5-ylcarbamate] | 910 |
| N[C@@H]1c2nccnc2[C@H](NC(=O)N2CCC(n3c(=O)[nH]c4ncccc43)CC2)CC[C@H]1c1cccc(F)c1F [Example 7, N-((5R,8S,9S)-9-amino-8-(2,3-difluorophenyl)-6,7,8,9-tetrahydro-5H-cyclohepta[b]pyrazin-5-yl)-4-(2-oxo-2,3-dihydro-1H-imidazo[4,5-b]pyridin-1-yl)piperidine-1-carboxamide] | 1.1 |
| N[C@@H]1c2scnc2[C@H](OC(=O)N2CCC(n3c(=O)[nH]c4ncccc43)CC2)CC[C@H]1c1cccc(F)c1F [Example 8, (4R,7S,8S)-8-amino-7-(2,3-difluorophenyl)-5,6,7,8-tetrahydro-4H-cyclohepta[d]thiazol-4-yl 4-(2-oxo-2,3-dihydro-1H-imidazo[4,5-b]pyridin-1-yl)piperidine-1-carboxylate] | 0.095 |
| N[C@@H]1c2sc(C(F)(F)F)nc2[C@H](OC(=O)N2CCC(n3c(=O)[nH]c4ncccc43)CC2)CC[C@H]1c1cccc(F)c1F [Example 9, (4R,7S,8S)-8-amino-7-(2,3-difluorophenyl)-2-(trifluoromethyl)-5,6,7,8-tetrahydro-4H-cyclohepta[d]thiazol-4-yl 4-(2-oxo-2,3-dihydro-1H-imidazo[4,5-b]pyridin-1-yl)piperidine-1-carboxylate] | 0.13 |
